# From patent US12251388B1, “Methods of treating ischemic stroke at risk for cerebral or cerebellar edema” (REMEDY PHARMACEUTICALS, INC., priority 2024, dated 2025)
# Test system: large hemispheric infarction (LHI) patients at high risk for cerebral edema
# Assay: CHARM trial: mRS score at 90 days, shift analysis on 5-category ordinal scale (0/1 and 5/6 collapsed), intravenous glibenclamide versus placebo
# Format: in vivo, human
# Conditions: for Common Odds Ratio: mITT population (aged ≤70 years), drug vs placebo
# Description: The CHARM trial evaluated the safety and efficacy of intravenous glibenclamide as a treatment for large hemispheric infarction (LHI) patients at high risk for cerebral edema.
# Patients meeting the following criteria were included: • A clinical diagnosis of acute ischemic stroke in the middle cerebral artery (MCA) territory. • A large hemispheric infarction defined as; lesion volume of 80 to 300 centimeters cubed (cm^3) on magnetic resonance imaging (MRI) diffusion-weighted imaging (DWI), or computed tomography perfusion (CTP), or an Alberta Stroke Program Early CT Score (ASPECTS) of 1 to 5 with involvement of at least 2 defined cortical regions. • Screening National Institutes of Health Stroke Scale (NIHSS)>=10. • At the time of randomization, and in the Investigator's judgement, it must be feasible for study drug treatment infusion to be initiated no later than 10 hours after time of symptom onset, if known, or the time last known normal. • Participants who wake with stroke may be included if neurological and other exclusion criteria are satisfied. The time of stroke onset is to be taken as the midpoint between sleep onset (or last known to be normal) and time of waking.
# Patients meeting the following criteria were excluded: • Participant is likely to have supportive care withdrawn on the first day. • Commitment to decompressive craniectomy (DC) prior to enrollment. • Evidence of concurrent infarction in the contralateral hemisphere sufficiently serious so as to affect functional outcome. Pre-Specified Primary Endpoint
# Modified Rankin Scale (mRS) score at 90 days analyzed as a shift analysis using a 5-category ordinal scale with 0/1 and 5/6 collapsed. The primary efficacy analysis was pre-specified to be conducted in participants 18-70 years of age (inclusive) who were randomized and receive study treatment (the modified intent-to-treat [mITT] population].
# Five hundred thirty-five subjects were enrolled, with 268 treated with placebo and 267 treated with intravenous glyburide. The mITT population (the primary analysis population), those participants aged≤70 years who received any study drug, consisted of 431 subjects.
# An analysis was conducted in the mITT population to examine effects of limits on the NIHSS. […] A common odds ratio of greater than 1 indicates a positive drug effect and in the group having an NIHSS of ≤20, the common odds ratio exceeded 1.7, indicating a robust effect in favor of the drug.
# [1] = mRS scores 5 and 6 combined, baseline NIHSS ≥10 and ≤20
smiles,measurement,setting,value
"COc1ccc(Cl)cc1C(=O)NCCc1ccc(S(=O)(=O)NC(=O)NC2CCCCC2)cc1 [intravenous glyburide, glyburide]",Common Odds Ratio,"NIHSS cutoff ≤18, mRS at 90 days, n=197",2.027
same,Common Odds Ratio,"NIHSS cutoff ≤19, mRS at 90 days, n=232",1.846
same,Common Odds Ratio,"NIHSS cutoff ≤21, mRS at 90 days, n=303",1.260
same,Common Odds Ratio,"NIHSS cutoff ≤22, mRS at 90 days, n=328",1.144
same,Common Odds Ratio,"NIHSS cutoff ≤23, mRS at 90 days, n=352",1.142
same,"lesion volume at the ""no effect"" level of the treatment effect (mRS)",[1],approximately 140 cm^3
same,lesion volume at which a robust treatment effect (mRS) is seen,[1],≤ 125 cm^3
